Data as given in publication PMC9415646, “Improving Aqueous Solubility and In Vitro Pharmacokinetic Properties of the 3-Nitroimidazo[1,2-a]pyridine Antileishmanial Pharmacophore” (Pharmaceuticals, 2022).
Several values for one entry are separate records, joined by “and”; a condition that tells them apart may be missing. Equal entries are not always repeated.

Experiments:
[1] = test system: L. infantum promastigotes; experiment: Antileishmanial activity against L. infantum promastigotes (luciferase assay); format: cell-based; settings: Leishmania infantum, 72 h, read-out: EC50 L. infantum Pro.
Protocol: L. infantum promastigotes (MHOM/MA/67/ITMAP-263, CNR Leishmania, Montpellier, France, expressing luciferase activity) were used in the following tests. The effects of the tested compounds on the growth of L. infantum promastigotes were assessed by Luciferase Assay. Briefly, promastigotes in log-phase in RPMI 1640 medium supplemented with 10% fetal calf serum (FCS), 2 mM L-glutamine and antibiotics (100U/mL penicillin, 100 µg/mL streptomycin and 50µg/mL geneticin), were incubated at an average density of 10^6 parasites/mL (100 µL/well) in sterile 96-well plates with various concentrations of compounds dissolved in DMSO (final concentration less than 0.5% v/v), in duplicate. Appropriate controls (100 µL/well) treated by DMSO and reference drugs (purchased for the majority from Sigma Aldrich) were added to each set of experiments. After a 72 h incubation period at 24 °C, each plate-well was then microscope-examined for detecting possible precipitate formation. To estimate the luciferase activities of promastigotes, 80 µL of each well are transferred in white 96-well plates, Steady Glow reagent (Promega) was added according to manufacter’s instructions, and plates were incubated for 2 min. The luminescence was measured in a FLUOstar Omega (BMG Labtech, Champigny-sur-Marne, France). […] EC50 were calculated by non-linear regression analysis processed on dose–response curves, using TableCurve 2D V5 software.

[2] = Cytotoxicity on THP-1 cell line (MTT); format: cell-based; settings: human, THP-1 cells, THP1 cell line
Protocol: The plates were incubated for 72 h at 37 °C. Each well plate was then microscope-examined for detecting possible precipitate formation before the medium was aspirated from the wells. 100 µL of MTT solution (0.5 mg/mL in medium) were then added to each well. Cells were incubated for 2 h at 37 °C. […] Plates were shaken vigorously (300 rpm) for 10 min. The absorbance was measured at 570 nm using a BIO-TEK ELx808 Absorbance Microplate Reader. DMSO was used as blank and doxorubicin (purchased from Sigma Aldrich) as positive control. Cell viability was calculated as percentage of control (cells incubated with DMSO). […] (Palo Alto, CA, USA). CC50 values represent the mean value calculated from three separate experiments.

[3] = Redox potential of the nitro group by cyclic voltammetry; format: physicochemical; settings: cyclic voltammetry in DMSO, corrected versus NHE
Protocol: Voltammetric measurements were carried out with a potentiostat Autolab PGSTAT100 (ECO Chemie, Utrecht, The Netherlands) controlled by GPES 4.09 software (ECO Chemie, Utrecht, The Netherlands). Experiments were performed at room temperature in a homemade airtight three–electrode cell connected to a vacuum/argon line. The reference electrode consisted of a saturated calomel electrode (SCE) separated from the solution by a bridge compartment. The counter electrode was a platinum wire of 1 cm^2 apparent surface. The working electrode was a GC microdisk (1.0 mm in diameter–Bio-logic SAS). The supporting electrolyte (nBu4N)[PF6] (Fluka, 99% puriss electrochemical grade) and the solvent DMSO (Sigma-Aldrich puriss p.a. dried <0.02% water) were used as received and simply degassed under argon. The solutions used during electrochemical analyses were typically 10^−3 M in compound and 0.1 M in supporting electrolyte. Before each measurement, the solutions were degassed by bubbling Ar, and the working electrode was polished with a polishing machine (Presi P230, Eybens, France). Under the experimental conditions adopted in this work, the half-wave potential (E1/2) of the ferrocene Fc+/Fc couple in DMSO was E1/2 = 0.45 V vs. SCE. Experimental peak potentials were measured versus SCE and converted to NHE by adding 0.241 V.

[4] = test system: L. donovani promastigotes; experiment: Antileishmanial activity against L. donovani promastigotes (MTT assay); format: cell-based; settings: Leishmania donovani; promastigotes, 72 h, MTT; read-out: EC50 L. donovani Pro.
Protocol: The Leishmania species used in this study were L. donovani (MHOM/IN/00/DEVI) purchased from CNR Leishmania (Montpellier, France). Leishmania promastigote forms were grown in Schneider’s Drosophila medium (Life Technologies, Saint-Aubin, France) supplemented with 100 U/mL penicillin, 100 µg/mL streptomycin, 2 mM L-glutamine and 20% FCS (Life Technologies, Saint-Aubin, France) at 27 °C. The in vitro evaluation of the tested compound’s antileishmanial activity on promastigote forms was carried out by MTT assay according to the Mosmann protocol with some modifications. Briefly, promastigotes in log-phase were incubated at an average density of 10^6 parasites/mL in sterile 96-well plates with various concentrations of compound dissolved in DMSO (final concentration less than 0.5% v/v), in duplicate. Appropriate controls treated with DMSO, Miltefosine, Amphotericin B, Fexinidazole, and Fexinidazole sulfone (reference drugs purchased from Sigma-Aldrich, Saint-Louis, Missouri, USA) were added to each set of experiments. After a 72 h incubation period at 27 °C, parasitic metabolic activity was determined. Each plate-well was then microscope-analyzed to detect any precipitate formation. 20 µL of MTT (3-(4,5-dimethylthiazol-2-yl)-2,5-diphenyltetrazolium bromide) (Sigma-Aldrich, Saint-Louis, Missouri, USA) solution (5 mg/mL in PBS) were added to each well and incubated for 4 h at 27 °C. The enzyme reaction was then stopped by addition of 100 µL of 50% isopropanol–10% sodium dodecyl sulfate. Plates were shaken vigorously at 300 rpm for 10 min. The absorbance was measured at 570 nm in a BIO-TEK Elx808 (Biotek, Colmar, France) absorbance microplate reader. […] EC50 values were calculated by non-linear regression analysis processed dose-response curves, using TableCurve 2D V5.0 software (Systat Software Inc. (Palo Alto, CA, USA)). EC50 values represent the mean value calculated from at least three separate experiments.

[5] = test system: L. infantum axenic amastigotes; experiment: Antileishmanial activity on L. infantum axenic amastigotes (luciferase assay); format: cell-based; settings: Leishmania infantum, 48 h, read-out: EC50 L. infantum Axenic Ama.
Protocol: L. infantum promastigotes were harvested in logarithmic phase of growth by centrifugation at 900× g for 10 min. The supernatant was removed carefully and was replaced by the same volume of RPMI 1640 complete medium at pH 5.4 and incubated for 24 h at 24 °C. The acidified promastigotes were then incubated for 24 h at 37 °C in a ventilated flask to transform them into axenic amastigotes. The amastigote stage was checked both by electron microscopy (short flagellum with small bulbous tip extending beyond a spherical cell body) and RT-PCR to confirm the overexpression of ATG8 and amastin genes in amastigotes, relative to promastigotes. The effects of the tested compounds on the growth of L. infantum axenic amastigotes were assessed as follows. L. infantum amastigotes were incubated at a density of 2 × 10^6 parasites/mL in sterile 96-well plates with various concentrations of compounds dissolved in DMSO (final concentration less than 0.5% v/v), in duplicate. Appropriate controls treated with DMSO, amphotericin B, miltefosine, fexinidazole and fexinidazole sulfone were added to each set of experiments. After a 48 h incubation period at 37 °C, each plate-well was then microscopically examined to detect any precipitate formation.
• Luciferase activity and determination of EC50 were performed as above.

[6] = Cytotoxicity evaluation on HepG2 cell line (MTT); format: cell-based; settings: human, HepG2 cells
Protocol: The tested molecules’ cytotoxicity was assessed according to the method of Mosmann with slight modifications. […] Triplicate assays were performed for each sample. Each plate-well was then microscope-examined to detect possible precipitate formation before the medium was aspirated from the wells. 100 µL of MTT (3-(4,5-dimethyl-2-thiazolyl)-2,5-diphenyl-2H-tetrazolium bromide) solution (0.5 mg/mL in medium without FCS) were then added to each well. […] Plates were shaken vigorously (700 rpm) for 10 min. The absorbance was measured at 570 nm with 630 nm as reference wavelength using a BIO-TEK ELx808 Absorbance Microplate Reader. DMSO was used as blank and doxorubicin (purchased from Sigma Aldrich) as positive control. Cell viability was calculated as percentage of control (cells incubated without compound). […] (Palo Alto, CA, USA)). CC50 values represent the mean value calculated from three separate experiments.

SMILES	EC50 [1]	CC50 at 72 h [2]	E0 (redox potential of the nitro group) [3]	EC50 [4]	EC50 [5]	CC50 at 72 h [6]	melting point
O=[N+]([O-])c1c(CS(=O)(=O)c2ccc(F)cc2)nc2c(Cl)cc(Cl)cn12 [Compound 1c, 6,8-Dichloro-2-[(4-fluorophenylsulfonyl)methyl]-3-nitroimidazo[1,2-a]pyridine]	> 100 µM	22.5 ± 1.1 µM	−0.60 V and −0.6 V	5.8 ± 1.9 µM	> 1.6 µM	> 7.8 µM	224 °C
O=[N+]([O-])c1c(CS(=O)(=O)c2ccc(C(F)(F)F)cc2)nc2c(Cl)cc(Cl)cn12 [Compound 1d, 6,8-Dichloro-3-Nitro-2-[(4-Trifluoromethylphenylsulfonyl)methyl]imidazo[1,2-a]pyridine]	> 100 µM	23.2 ± 1.9 µM	−0.60 V and −0.6 V	4.1 ± 0.4 µM	2.2 ± 0.1 µM	> 15.6 µM	196 °C
O=[N+]([O-])c1c(CS(=O)(=O)c2ccc(Cl)cc2)nc2c(Br)cc(Cl)cn12 [Compound 2d, 8-Bromo-6-Chloro-2-[(4-Chlorophenylsulfonyl)methyl]-3-Nitroimidazo[1,2-a]pyridine]	3.5 ± 0.4 µM	> 31.2 µM	−0.62 V	3 ± 0.4 µM	2.1 ± 0.3 µM	> 12.5 µM	222 °C
O=[N+]([O-])c1c(CS(=O)(=O)c2ccc(F)cc2)nc2c(Br)cc(Cl)cn12 [Compound 2e, 8-Bromo-6-Chloro-2-[(4-Fluorophenylsulfonyl)methyl]-3-Nitroimidazo[1,2-a]pyridine]	> 100 µM	33.3 ± 1.4 µM	−0.64 V	2.8 ± 0.5 µM	3.3 ± 0.1 µM	> 7.8 µM	222 °C
CC(C)S(=O)(=O)Cc1nc2c(Br)cc(Cl)cn2c1[N+](=O)[O-] [Compound 2h, 8-Bromo-6-Chloro-2-[(isopropylsulfonyl)methyl]-3-Nitroimidazo[1,2-a]pyridine]	61.2 ± 3.4 µM	> 100 µM	−0.65 V	> 25 µM	> 50 µM	> 62.5 µM	183 °C
O=[N+]([O-])c1c(CS(=O)(=O)C2CC2)nc2c(Br)cc(Cl)cn12 [Compound 2i, 8-Bromo-6-Chloro-2-[(cyclopropylsulfonyl]methyl)-3-Nitroimidazo[1,2-a]pyridine]	> 50 µM	> 50 µM	−0.63 V	> 25 µM	> 50 µM	> 6.2 µM	250 °C
O=[N+]([O-])c1c(CS(=O)(=O)CCC(F)(F)F)nc2c(Br)cc(Cl)cn12 [Compound 2j, 8-Bromo-6-Chloro-3-Nitro-2-[(3,3,3-Trifluoropropylsulfonyl)methyl]imidazo[1,2-a]pyridine]	1.9 ± 0.4 µM	26 ± 1.2 µM	−0.60 V and −0.6 V	14.4 ± 1.6 µM	20.1 ± 5.6 µM	42.9 ± 12.3 µM	181 °C
CC(C)S(=O)(=O)Cc1nc2c(Sc3ccc(Cl)cc3)cc(Cl)cn2c1[N+](=O)[O-] [Compound 3g, 6-Chloro-8-[(4-Chlorophenyl)thio]-2-[(isopropylsulfonyl)methyl]-3-Nitroimidazo[1,2-a]pyridine]	2.4 ± 0.6 µM	> 31.2 µM	−0.63 V	2.2 ± 0.3 µM	3.2 ± 0.1 µM	22.2 ± 5.5 µM	208 °C
O=[N+]([O-])c1c(C[S+]([O-])c2ccccc2)nc2c(Br)cc(Cl)cn12 (centres unmarked) [Compound 5, 8-Bromo-6-Chloro-3-Nitro-2-[(phenylsulfinyl)methyl]imidazo[1,2-a]pyridine]	–	–	–	–	–	–	198 °C
COc1cccc2c1C(=O)c1c(O)c3c(c(O)c1C2=O)C[C@@](O)(C(=O)CO)C[C@@H]3O[C@H]1C[C@H](N)[C@H](O)[C@H](C)O1 [Doxorubicin, reference compound]	–	0.8 ± 0.1 µM	–	–	–	0.2 ± 0.02 µM	–
